Data reported in PMC8523698, “Preclinical characterization of an intravenous coronavirus 3CL protease inhibitor for the potential treatment of COVID19” (Nature Communications, 2021).
pEC50, pIC50: −log10 of the molar value. ≈ marks a conversion by molar mass, not a printed value. Where “and” joins values, the source holds several entries; their conditions need not be identical. Equal entries are not always repeated. Where two headings read alike, the source gives them in different places.

Key:
[1] = Solubility measurement
[2] = system: CYP3A4/5; test: Reversible CYP inhibition in human liver microsomes; conditions: for pIC50: pH 7.4, probe midazolam (1′-hydroxylation), at approximately KM, IC50, Midazolam 1′-hydroxylation
[3] = system: HCoV-229E; test: Viral CPE assay in MRC-5 cells (CellTiter Glo); type: cell-based
[4] = molecular target: CYP2C9 (Homo sapiens, UniProt P11712); test: Reversible CYP inhibition in human liver microsomes; conditions: for activity at 0.01 µM / activity at 0.158 µM / activity at 0.398 µM / activity at 1 µM / activity at 15.8 µM / activity at 39.8 µM / activity at 100 µM: human, microsomes, pH 7.4, Percent of Control Activity
[5] = molecular target: CYP2D6 (Homo sapiens, UniProt P10635); test: as above
[6] = human, human liver microsomes, pH 7.4, probe midazolam (mdz), Percent of Control Activity, CYP 3A4/5 (mdz), 30-Minute Preincubation
[7] = human, human liver microsomes, pH 7.4, probe midazolam (mdz), Percent of Control Activity, CYP 3A4/5 (mdz), Zero-Minute Preincubation

Sequence of CYP2C9 (P11712 whole entry): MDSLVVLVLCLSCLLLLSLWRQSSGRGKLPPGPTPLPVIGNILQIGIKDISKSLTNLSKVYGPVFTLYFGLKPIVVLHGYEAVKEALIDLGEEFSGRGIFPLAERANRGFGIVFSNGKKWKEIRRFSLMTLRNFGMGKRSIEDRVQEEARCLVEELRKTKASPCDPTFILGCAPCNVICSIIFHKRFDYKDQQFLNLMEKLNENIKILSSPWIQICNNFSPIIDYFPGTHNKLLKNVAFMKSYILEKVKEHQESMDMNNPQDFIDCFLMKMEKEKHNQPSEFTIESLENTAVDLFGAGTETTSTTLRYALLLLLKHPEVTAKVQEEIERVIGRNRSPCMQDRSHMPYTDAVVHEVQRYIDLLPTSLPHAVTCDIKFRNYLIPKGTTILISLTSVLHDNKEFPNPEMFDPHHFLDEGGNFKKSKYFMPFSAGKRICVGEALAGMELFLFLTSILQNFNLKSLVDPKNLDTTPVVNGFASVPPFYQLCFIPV
Sequence of CYP2D6 (P10635 whole entry): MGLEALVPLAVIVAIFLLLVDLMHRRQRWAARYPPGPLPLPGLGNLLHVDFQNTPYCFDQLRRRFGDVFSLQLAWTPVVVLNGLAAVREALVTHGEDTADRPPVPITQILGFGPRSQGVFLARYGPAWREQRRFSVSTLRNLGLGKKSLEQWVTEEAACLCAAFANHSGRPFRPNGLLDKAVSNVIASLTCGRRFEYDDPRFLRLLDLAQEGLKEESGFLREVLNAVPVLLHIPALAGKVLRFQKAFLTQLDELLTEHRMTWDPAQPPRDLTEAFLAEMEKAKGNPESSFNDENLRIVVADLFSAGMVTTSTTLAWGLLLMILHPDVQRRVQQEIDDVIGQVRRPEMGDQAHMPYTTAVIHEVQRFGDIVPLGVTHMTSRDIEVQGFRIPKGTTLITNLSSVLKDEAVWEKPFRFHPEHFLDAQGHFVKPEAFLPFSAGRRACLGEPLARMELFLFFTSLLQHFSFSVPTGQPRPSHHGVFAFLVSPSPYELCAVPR

SMILES: COc1cccc2[nH]c(C(=O)N[C@@H](CC(C)C)C(=O)N[C@@H](C[C@@H]3CCNC3=O)C(=O)COP(=O)(O)O)cc12 [PF-07304814]
- solubility at 48 h ([1]; deionized water and pH buffers): > 200 mg/mL
- solubility at 48 h ([1]; deionized water and pH buffers (aqueous)): 200 mg/mL (≈ 362 mM)
- Percent of Control Activity ([2]; CYP 3A4/5 (mdz), 0.01 µM, 30-Minute Preincubation): 103.5%
- Percent of Control Activity ([2]; CYP 3A4/5 (mdz), 15.8 µM, Zero-Minute Preincubation): 105.7%
- Percent of Control Activity ([2]; CYP 3A4/5 (mdz), 39.8 µM, 30-Minute Preincubation): 99.7%
- Percent of Control Activity ([2]; CYP 3A4/5 (mdz), 100 µM, 30-Minute Preincubation): 95.6%
- Percent of Control Activity ([2]; CYP 3A4/5 (mdz), 100 µM, Zero-Minute Preincubation): 100.4%
- pIC50 ([2]; human, human liver microsomes, T0): < 4.00
- pIC50 ([2]; human, human liver microsomes, T30): < 4.00
- activity at 0.01 µM ([2]; human, human liver microsomes, pH 7.4, probe midazolam (mdz), Percent of Control Activity, CYP 3A4/5 (mdz), 0.01 µM, Zero-Minute Preincubation): 96.3%
- activity at 0.158 µM [2, 6]: 103%
- activity at 0.158 µM [2, 7]: 95%
- activity at 0.398 µM ([2]; human, human liver microsomes, pH 7.4, probe midazolam (mdz), Percent of Control Activity, CYP 3A4/5 (mdz), 0.398 µM, 30-Minute Preincubation): 100%
- activity at 1 µM [2, 6]: 100%
- activity at 1 µM [2, 7]: 99.8%
- activity at 15.8 µM ([2]; human, human liver microsomes, pH 7.4, probe midazolam (mdz), Percent of Control Activity, CYP 3A4/5 (mdz), 15.8 µM, Zero-Minute Preincubation): 101%
- activity at 100 µM ([2]; human, human liver microsomes, pH 7.4, probe midazolam (mdz), Percent of Control Activity, CYP 3A4/5 (mdz), 100 µM, 30-Minute Preincubation): 95%
- pEC50 ([3]; Human coronavirus 229E, MRC5, read-out: EC50 GeoMean (95% CI), efflux inhibitor CP-100356: 0): 7.13
- pEC50 ([3]; Human coronavirus 229E, MRC5, read-out: EC50 GeoMean (95% CI), efflux inhibitor CP-100356: 0.5 μM): 7.24
- pEC50 ([3]; MRC-5, plus 0.5 uM efflux inhibitor, one value per run date (N=3), read-out: EC50): 7.09
- pIC50 [4]: < 4.00
- Percent of Control Activity ([4]; CYP 2C9, 0.01 µM, 30-Minute Preincubation, 0.01 µM): 99.6% and 105.4%
- Percent of Control Activity ([4]; CYP 2C9, 0.01 µM, Zero-Minute Preincubation, 0.01 µM): 102.7% and 88.8%
- Percent of Control Activity ([4]; CYP 2C9, 0.158 µM, 30-Minute Preincubation, 0.158 µM): 97.3% and 103.8%
- Percent of Control Activity ([4]; CYP 2C9, 0.158 µM, Zero-Minute Preincubation, 0.158 µM): 103.7% and 96.2%
- Percent of Control Activity ([4]; CYP 2C9, 0.398 µM, 30-Minute Preincubation, 0.398 µM): 96.2%
- Percent of Control Activity ([4]; CYP 2C9, 0.398 µM, Zero-Minute Preincubation, 0.398 µM): 103.2% and 91.4%
- Percent of Control Activity ([4]; CYP 2C9, 1 µM, 30-Minute Preincubation, 1 µM): 98.0% and 100.0%
- Percent of Control Activity ([4]; CYP 2C9, 1 µM, Zero-Minute Preincubation, 1 µM): 88.9%
- Percent of Control Activity ([4]; CYP 2C9, 15.8 µM, 30-Minute Preincubation, 15.8 µM): 97.7% and 102.2%
- Percent of Control Activity ([4]; CYP 2C9, 15.8 µM, Zero-Minute Preincubation, 15.8 µM): 104.1% and 92.6%
- Percent of Control Activity ([4]; CYP 2C9, 39.8 µM, 30-Minute Preincubation, 39.8 µM): 98.6% and 102.8%
- Percent of Control Activity ([4]; CYP 2C9, 39.8 µM, Zero-Minute Preincubation, 39.8 µM): 101.8% and 92.4%
- Percent of Control Activity ([4]; CYP 2C9, 100 µM, 30-Minute Preincubation, 100 µM): 97.1% and 95.4%
- Percent of Control Activity ([4]; CYP 2C9, 100 µM, Zero-Minute Preincubation, 100 µM): 91.7%
- pIC50 ([4]; Diclofenac 4′-hydroxylation, T30): < 4.00
- activity at 0.01 µM ([4]; CYP 2C9, 0.01 µM, 30-Minute Preincubation): 100%
- activity at 0.01 µM ([4]; CYP 2C9, 0.01 µM, Zero-Minute Preincubation): 98.2%
- activity at 0.158 µM ([4]; CYP 2C9, 0.158 µM, 30-Minute Preincubation): 98.3%
- activity at 0.158 µM ([4]; CYP 2C9, 0.158 µM, Zero-Minute Preincubation): 103%
- activity at 0.398 µM ([4]; CYP 2C9, 0.398 µM, 30-Minute Preincubation): 106%
- activity at 0.398 µM ([4]; CYP 2C9, 0.398 µM, Zero-Minute Preincubation): 102%
- activity at 1 µM ([4]; CYP 2C9, 1 µM, 30-Minute Preincubation): 100%
- activity at 1 µM ([4]; CYP 2C9, 1 µM, Zero-Minute Preincubation): 100%
- activity at 15.8 µM ([4]; CYP 2C9, 15.8 µM, 30-Minute Preincubation): 98.8%
- activity at 15.8 µM ([4]; CYP 2C9, 15.8 µM, Zero-Minute Preincubation): 106%
- activity at 39.8 µM ([4]; CYP 2C9, 39.8 µM, 30-Minute Preincubation): 101%
- activity at 39.8 µM ([4]; CYP 2C9, 39.8 µM, Zero-Minute Preincubation): 105%
- activity at 100 µM ([4]; CYP 2C9, 100 µM, 30-Minute Preincubation): 96.5%
- activity at 100 µM ([4]; CYP 2C9, 100 µM, Zero-Minute Preincubation): 101%
- pIC50 [5]: < 4.00
- Percent of Control Activity ([5]; CYP 2D6, 0.01 µM, 30-Minute Preincubation, 0.01 µM): 97.3% and 99.6%
- Percent of Control Activity ([5]; CYP 2D6, 0.01 µM, Zero-Minute Preincubation, 0.01 µM): 101.0% and 93.7%
- Percent of Control Activity ([5]; CYP 2D6, 0.158 µM, 30-Minute Preincubation, 0.158 µM): 96.0%
- Percent of Control Activity ([5]; CYP 2D6, 0.158 µM, Zero-Minute Preincubation, 0.158 µM): 97.1% and 95.4%
- Percent of Control Activity ([5]; CYP 2D6, 0.398 µM, 30-Minute Preincubation, 0.398 µM): 95.2% and 103.0%
- Percent of Control Activity ([5]; CYP 2D6, 0.398 µM, Zero-Minute Preincubation, 0.398 µM): 98.0% and 97.1%
- Percent of Control Activity ([5]; CYP 2D6, 1 µM, 30-Minute Preincubation, 1 µM): 95.2% and 99.6%
- Percent of Control Activity ([5]; CYP 2D6, 1 µM, Zero-Minute Preincubation, 1 µM): 94.2%
- Percent of Control Activity ([5]; CYP 2D6, 15.8 µM, 30-Minute Preincubation, 15.8 µM): 101.2% and 99.3%
- Percent of Control Activity ([5]; CYP 2D6, 15.8 µM, Zero-Minute Preincubation, 15.8 µM): 97.0%
- Percent of Control Activity ([5]; CYP 2D6, 39.8 µM, 30-Minute Preincubation, 39.8 µM): 99.9% and 102.0%
- Percent of Control Activity ([5]; CYP 2D6, 39.8 µM, Zero-Minute Preincubation, 39.8 µM): 95.5% and 101.2%
- Percent of Control Activity ([5]; CYP 2D6, 100 µM, 30-Minute Preincubation, 100 µM): 93.7% and 95.4%
- Percent of Control Activity ([5]; CYP 2D6, 100 µM, Zero-Minute Preincubation, 100 µM): 68.1% and 92.0% and 98.1%
- pIC50 ([5]; Dextromethorphan O-demethylation, T0): < 4.00
- activity at 0.01 µM ([5]; human, microsomes, pH 7.4, Percent of Control Activity, CYP 2D6, 0.01 µM, 30-Minute Preincubation): 101%
- activity at 0.01 µM ([5]; human, microsomes, pH 7.4, Percent of Control Activity, CYP 2D6, 0.01 µM, Zero-Minute Preincubation): 99.1%
- activity at 0.158 µM ([5]; human, microsomes, pH 7.4, Percent of Control Activity, CYP 2D6, 0.158 µM, 30-Minute Preincubation): 103%
- activity at 0.158 µM ([5]; human, microsomes, pH 7.4, Percent of Control Activity, CYP 2D6, 0.158 µM, Zero-Minute Preincubation): 102%
- activity at 0.398 µM ([5]; human, microsomes, pH 7.4, Percent of Control Activity, CYP 2D6, 0.398 µM, 30-Minute Preincubation): 103%
- activity at 0.398 µM ([5]; human, microsomes, pH 7.4, Percent of Control Activity, CYP 2D6, 0.398 µM, Zero-Minute Preincubation): 101%
- activity at 1 µM ([5]; human, microsomes, pH 7.4, Percent of Control Activity, CYP 2D6, 1 µM, 30-Minute Preincubation): 104%
- activity at 1 µM ([5]; human, microsomes, pH 7.4, Percent of Control Activity, CYP 2D6, 1 µM, Zero-Minute Preincubation): 98.7%
- activity at 15.8 µM ([5]; human, microsomes, pH 7.4, Percent of Control Activity, CYP 2D6, 15.8 µM, 30-Minute Preincubation): 102%
- activity at 15.8 µM ([5]; human, microsomes, pH 7.4, Percent of Control Activity, CYP 2D6, 15.8 µM, Zero-Minute Preincubation): 106%
- activity at 39.8 µM ([5]; human, microsomes, pH 7.4, Percent of Control Activity, CYP 2D6, 39.8 µM, 30-Minute Preincubation): 102%
- activity at 39.8 µM ([5]; human, microsomes, pH 7.4, Percent of Control Activity, CYP 2D6, 39.8 µM, Zero-Minute Preincubation): 102%
- activity at 100 µM ([5]; human, microsomes, pH 7.4, Percent of Control Activity, CYP 2D6, 100 µM, 30-Minute Preincubation): 102%
